The results in this text go back to ChEMBL document CHEMBL4052776, “Discovery of 3-morpholino-imidazole[1,5-a]pyrazine BTK inhibitors for rheumatoid arthritis” (Bioorg Med Chem Lett, 2017).

The target in data set [1] is T1, Tyrosine-protein kinase BTK (Homo sapiens, UniProt Q06187). In words: Inhibition of recombinant full-length His6-tagged BTK (unknown origin) expressed in baculovirus infected Sf9 cells using biotinylated A5 peptide as substrate preincubated for 60 mins followed by substrate addition measured after 120 mins by LANCE TR-FRET assay.
T1 sequence (Q06187 whole entry): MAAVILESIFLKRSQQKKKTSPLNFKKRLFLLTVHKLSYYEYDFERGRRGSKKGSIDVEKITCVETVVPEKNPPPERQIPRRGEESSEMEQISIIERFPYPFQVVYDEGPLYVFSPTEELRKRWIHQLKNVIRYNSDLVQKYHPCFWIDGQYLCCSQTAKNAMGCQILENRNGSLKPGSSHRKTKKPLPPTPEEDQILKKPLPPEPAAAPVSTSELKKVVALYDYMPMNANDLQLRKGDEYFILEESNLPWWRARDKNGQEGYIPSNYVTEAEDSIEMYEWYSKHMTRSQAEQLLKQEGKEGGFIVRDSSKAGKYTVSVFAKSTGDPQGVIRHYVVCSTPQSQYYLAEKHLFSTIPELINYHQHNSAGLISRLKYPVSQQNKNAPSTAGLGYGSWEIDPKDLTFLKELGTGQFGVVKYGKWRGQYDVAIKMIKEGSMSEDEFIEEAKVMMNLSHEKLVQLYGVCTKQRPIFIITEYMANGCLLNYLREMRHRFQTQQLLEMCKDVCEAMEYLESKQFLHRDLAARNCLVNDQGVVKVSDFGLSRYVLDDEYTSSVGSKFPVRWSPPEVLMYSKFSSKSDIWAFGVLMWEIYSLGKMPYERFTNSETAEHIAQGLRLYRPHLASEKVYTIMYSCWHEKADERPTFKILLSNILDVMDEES
Data set [2] has as its target T1, Tyrosine-protein kinase BTK. Briefly: Inhibition of BTK in human PBMC assessed as reduction in anti-IgM-induced MIP1beta.
Data set [3] addresses Voltage-gated inwardly rectifying potassium channel KCNH2 (Homo sapiens, UniProt Q12809). In words: Inhibition of human ERG by [35S]-MK499 displacement or iKr channel assay.
Data set [4] concerns the target Tyrosine-protein kinase Blk (Homo sapiens, UniProt P51451). Briefly: Inhibition of BLK (unknown origin).
Data set [5] concerns the target T2, Cytoplasmic tyrosine-protein kinase BMX (Homo sapiens, UniProt P51813).
T2 sequence (P51813 whole entry): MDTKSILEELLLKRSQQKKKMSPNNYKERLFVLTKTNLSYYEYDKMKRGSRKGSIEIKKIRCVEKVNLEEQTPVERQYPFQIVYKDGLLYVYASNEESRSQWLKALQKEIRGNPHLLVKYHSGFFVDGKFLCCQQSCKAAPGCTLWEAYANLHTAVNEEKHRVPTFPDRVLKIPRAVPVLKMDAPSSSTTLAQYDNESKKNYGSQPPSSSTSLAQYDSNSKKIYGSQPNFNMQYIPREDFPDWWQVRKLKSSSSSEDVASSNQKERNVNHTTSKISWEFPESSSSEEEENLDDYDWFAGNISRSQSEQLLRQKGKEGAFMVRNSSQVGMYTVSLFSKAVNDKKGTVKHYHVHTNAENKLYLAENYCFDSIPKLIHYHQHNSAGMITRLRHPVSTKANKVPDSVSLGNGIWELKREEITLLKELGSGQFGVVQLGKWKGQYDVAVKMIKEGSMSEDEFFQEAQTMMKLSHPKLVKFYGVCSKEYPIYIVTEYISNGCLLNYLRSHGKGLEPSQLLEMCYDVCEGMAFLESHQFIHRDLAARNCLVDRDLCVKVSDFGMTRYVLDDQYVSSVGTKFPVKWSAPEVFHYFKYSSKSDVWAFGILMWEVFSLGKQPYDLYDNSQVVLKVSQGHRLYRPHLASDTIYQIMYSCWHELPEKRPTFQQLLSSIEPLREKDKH
In words: Inhibition of BMX (unknown origin).

Data set [6] addresses Receptor tyrosine-protein kinase erbB-4 (Homo sapiens, UniProt Q15303). Briefly: Inhibition of ERBB4 (unknown origin).
Data set [7] concerns the target Tyrosine-protein kinase Fgr (Homo sapiens, UniProt P09769). Briefly: Inhibition of FGR (unknown origin).
For data set [8], the species on record is Homo sapiens. In words: Selectivity ratio of IC50 for FGR (unknown origin) to IC50 for BTK (unknown origin).
Data set [9] has as its target Tyrosine-protein kinase FRK (Homo sapiens, UniProt P42685). Briefly: Inhibition of FRK (unknown origin).
Data set [10] is filed under the species Homo sapiens. Briefly: Selectivity ratio of IC50 for FRK (unknown origin) to IC50 for BTK (unknown origin).
The target in data set [11] is Tyrosine-protein kinase Fyn (Homo sapiens, UniProt P06241). Briefly: Inhibition of FYN (unknown origin).
Sequence of Tyrosine-protein kinase Fyn (P06241 whole entry): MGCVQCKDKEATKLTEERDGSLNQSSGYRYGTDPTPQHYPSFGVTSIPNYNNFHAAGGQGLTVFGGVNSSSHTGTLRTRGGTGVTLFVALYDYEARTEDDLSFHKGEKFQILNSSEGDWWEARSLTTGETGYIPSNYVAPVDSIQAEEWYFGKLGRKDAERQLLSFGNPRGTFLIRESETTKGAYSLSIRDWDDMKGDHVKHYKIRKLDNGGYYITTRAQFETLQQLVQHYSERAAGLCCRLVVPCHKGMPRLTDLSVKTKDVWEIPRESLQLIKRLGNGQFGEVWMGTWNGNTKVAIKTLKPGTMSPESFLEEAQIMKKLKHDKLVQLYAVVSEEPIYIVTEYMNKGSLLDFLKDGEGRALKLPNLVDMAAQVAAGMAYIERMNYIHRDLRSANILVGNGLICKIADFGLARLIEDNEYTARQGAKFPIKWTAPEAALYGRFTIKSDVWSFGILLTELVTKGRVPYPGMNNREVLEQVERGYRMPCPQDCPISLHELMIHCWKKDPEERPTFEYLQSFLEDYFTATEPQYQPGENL
The species entered for data set [12] is Homo sapiens. In words: Selectivity ratio of IC50 for FYN (unknown origin) to IC50 for BTK (unknown origin).
The species named for data set [13] is Homo sapiens. Briefly: Selectivity ratio of IC50 for LCK (unknown origin) to IC50 for BTK (unknown origin).
Data set [14] deals with Tyrosine-protein kinase Lyn (Homo sapiens, UniProt P07948). In words: Inhibition of LYNB (unknown origin).
The species entered for data set [15] is Homo sapiens. Briefly: Selectivity ratio of IC50 for LYNB (unknown origin) to IC50 for BTK (unknown origin).
The species entered for data set [16] is Homo sapiens. Briefly: Selectivity ratio of IC50 for PTK6 (unknown origin) to IC50 for BTK (unknown origin).
In data set [17] the target is Proto-oncogene tyrosine-protein kinase Src (Homo sapiens, UniProt P12931). Briefly: Inhibition of SRC (unknown origin).
The target of data set [18] is Tyrosine-protein kinase Srms (Homo sapiens, UniProt Q9H3Y6). Briefly: Inhibition of SRMS (unknown origin).
Sequence of Tyrosine-protein kinase Srms (Q9H3Y6 whole entry): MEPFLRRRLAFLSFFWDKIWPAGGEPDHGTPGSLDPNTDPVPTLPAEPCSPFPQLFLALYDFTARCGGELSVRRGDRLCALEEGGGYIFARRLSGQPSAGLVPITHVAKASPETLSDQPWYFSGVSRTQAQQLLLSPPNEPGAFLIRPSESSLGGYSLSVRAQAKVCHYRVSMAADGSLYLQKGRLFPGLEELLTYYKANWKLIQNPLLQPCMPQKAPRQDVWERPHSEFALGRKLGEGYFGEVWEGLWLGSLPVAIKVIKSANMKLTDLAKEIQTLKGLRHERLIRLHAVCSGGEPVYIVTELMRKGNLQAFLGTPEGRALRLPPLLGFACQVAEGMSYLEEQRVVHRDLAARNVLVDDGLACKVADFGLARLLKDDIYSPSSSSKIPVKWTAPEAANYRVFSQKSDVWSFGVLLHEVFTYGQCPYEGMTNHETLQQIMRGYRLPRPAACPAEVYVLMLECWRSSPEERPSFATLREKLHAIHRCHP
The species named for data set [19] is Homo sapiens. In words: Selectivity ratio of IC50 for SRMS (unknown origin) to IC50 for BTK (unknown origin).
For data set [20], the target named is T3, Tyrosine-protein kinase TXK (Homo sapiens, UniProt P42681).
T3 sequence (P42681 whole entry): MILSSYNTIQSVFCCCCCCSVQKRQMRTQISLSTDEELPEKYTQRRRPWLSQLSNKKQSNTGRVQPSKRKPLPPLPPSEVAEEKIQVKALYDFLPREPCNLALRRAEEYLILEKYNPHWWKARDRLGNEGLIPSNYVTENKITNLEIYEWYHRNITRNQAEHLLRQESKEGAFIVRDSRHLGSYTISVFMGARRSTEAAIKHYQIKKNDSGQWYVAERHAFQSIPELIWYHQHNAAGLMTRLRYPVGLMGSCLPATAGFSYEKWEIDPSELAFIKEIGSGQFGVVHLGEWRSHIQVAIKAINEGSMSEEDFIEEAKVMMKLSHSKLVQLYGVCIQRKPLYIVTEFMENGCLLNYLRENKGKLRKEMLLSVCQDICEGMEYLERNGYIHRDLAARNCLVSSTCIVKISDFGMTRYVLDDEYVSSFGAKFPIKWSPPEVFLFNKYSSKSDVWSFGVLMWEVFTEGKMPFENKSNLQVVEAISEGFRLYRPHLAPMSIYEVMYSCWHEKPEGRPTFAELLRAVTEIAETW
In words: Inhibition of TXK (unknown origin).

The species entered for data set [21] is Homo sapiens. In words: Selectivity ratio of IC50 for YES1 (unknown origin) to IC50 for BTK (unknown origin).
A short description of data set [22]: Total clearance in rat plasma at 10 mg/kg. It counts as ADME, organism-based.
Data set [23] is described as follows: Oral bioavailability in dog at 2 mg/kg. It counts as ADME, organism-based, Canis lupus familiaris. The settings on record: in vivo.

Sequence of Voltage-gated inwardly rectifying potassium channel KCNH2 (Q12809 whole entry): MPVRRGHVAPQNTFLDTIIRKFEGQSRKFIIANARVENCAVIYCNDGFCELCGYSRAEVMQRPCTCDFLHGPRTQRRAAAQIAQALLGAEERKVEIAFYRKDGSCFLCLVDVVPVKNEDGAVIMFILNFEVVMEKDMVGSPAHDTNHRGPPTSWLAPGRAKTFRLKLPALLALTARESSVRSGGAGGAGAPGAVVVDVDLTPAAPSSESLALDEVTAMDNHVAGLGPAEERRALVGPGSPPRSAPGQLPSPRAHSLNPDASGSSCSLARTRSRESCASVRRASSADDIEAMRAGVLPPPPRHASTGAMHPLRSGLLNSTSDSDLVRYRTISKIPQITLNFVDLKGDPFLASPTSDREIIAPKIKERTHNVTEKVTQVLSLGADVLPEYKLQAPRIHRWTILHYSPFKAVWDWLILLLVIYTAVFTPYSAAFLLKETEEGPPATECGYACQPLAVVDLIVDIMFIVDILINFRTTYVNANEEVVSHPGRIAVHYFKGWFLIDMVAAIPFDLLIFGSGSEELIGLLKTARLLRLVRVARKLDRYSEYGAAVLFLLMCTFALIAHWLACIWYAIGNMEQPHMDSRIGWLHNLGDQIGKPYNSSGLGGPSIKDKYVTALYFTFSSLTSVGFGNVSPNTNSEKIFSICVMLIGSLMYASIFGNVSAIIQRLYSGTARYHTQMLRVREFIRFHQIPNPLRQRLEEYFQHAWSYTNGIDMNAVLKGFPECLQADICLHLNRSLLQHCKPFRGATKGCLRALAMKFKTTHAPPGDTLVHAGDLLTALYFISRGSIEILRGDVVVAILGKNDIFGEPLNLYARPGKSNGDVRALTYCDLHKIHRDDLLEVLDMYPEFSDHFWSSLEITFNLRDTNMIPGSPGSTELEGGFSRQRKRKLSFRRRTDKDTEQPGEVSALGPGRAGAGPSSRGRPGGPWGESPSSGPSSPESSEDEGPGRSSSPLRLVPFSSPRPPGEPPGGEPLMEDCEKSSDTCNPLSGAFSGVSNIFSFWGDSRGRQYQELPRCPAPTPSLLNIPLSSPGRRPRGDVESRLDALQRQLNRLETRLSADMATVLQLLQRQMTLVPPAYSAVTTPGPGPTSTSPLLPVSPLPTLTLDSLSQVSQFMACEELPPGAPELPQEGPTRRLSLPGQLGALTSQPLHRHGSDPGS
Sequence of Tyrosine-protein kinase Fgr (P09769 whole entry): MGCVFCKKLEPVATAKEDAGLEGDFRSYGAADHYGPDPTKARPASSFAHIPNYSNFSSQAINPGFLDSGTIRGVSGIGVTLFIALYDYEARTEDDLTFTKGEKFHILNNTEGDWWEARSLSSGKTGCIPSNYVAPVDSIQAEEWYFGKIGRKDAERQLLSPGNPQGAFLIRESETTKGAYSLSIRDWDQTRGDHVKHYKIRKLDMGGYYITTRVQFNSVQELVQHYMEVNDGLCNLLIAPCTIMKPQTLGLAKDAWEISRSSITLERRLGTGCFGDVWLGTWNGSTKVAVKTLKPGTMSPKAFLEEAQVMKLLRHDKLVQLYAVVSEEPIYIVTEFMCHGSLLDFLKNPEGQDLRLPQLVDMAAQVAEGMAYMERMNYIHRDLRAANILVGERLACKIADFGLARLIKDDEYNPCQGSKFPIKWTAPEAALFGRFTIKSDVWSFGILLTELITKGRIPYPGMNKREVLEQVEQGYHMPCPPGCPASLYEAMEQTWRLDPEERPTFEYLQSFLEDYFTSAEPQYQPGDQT
Sequence of Receptor tyrosine-protein kinase erbB-4 (Q15303 whole entry): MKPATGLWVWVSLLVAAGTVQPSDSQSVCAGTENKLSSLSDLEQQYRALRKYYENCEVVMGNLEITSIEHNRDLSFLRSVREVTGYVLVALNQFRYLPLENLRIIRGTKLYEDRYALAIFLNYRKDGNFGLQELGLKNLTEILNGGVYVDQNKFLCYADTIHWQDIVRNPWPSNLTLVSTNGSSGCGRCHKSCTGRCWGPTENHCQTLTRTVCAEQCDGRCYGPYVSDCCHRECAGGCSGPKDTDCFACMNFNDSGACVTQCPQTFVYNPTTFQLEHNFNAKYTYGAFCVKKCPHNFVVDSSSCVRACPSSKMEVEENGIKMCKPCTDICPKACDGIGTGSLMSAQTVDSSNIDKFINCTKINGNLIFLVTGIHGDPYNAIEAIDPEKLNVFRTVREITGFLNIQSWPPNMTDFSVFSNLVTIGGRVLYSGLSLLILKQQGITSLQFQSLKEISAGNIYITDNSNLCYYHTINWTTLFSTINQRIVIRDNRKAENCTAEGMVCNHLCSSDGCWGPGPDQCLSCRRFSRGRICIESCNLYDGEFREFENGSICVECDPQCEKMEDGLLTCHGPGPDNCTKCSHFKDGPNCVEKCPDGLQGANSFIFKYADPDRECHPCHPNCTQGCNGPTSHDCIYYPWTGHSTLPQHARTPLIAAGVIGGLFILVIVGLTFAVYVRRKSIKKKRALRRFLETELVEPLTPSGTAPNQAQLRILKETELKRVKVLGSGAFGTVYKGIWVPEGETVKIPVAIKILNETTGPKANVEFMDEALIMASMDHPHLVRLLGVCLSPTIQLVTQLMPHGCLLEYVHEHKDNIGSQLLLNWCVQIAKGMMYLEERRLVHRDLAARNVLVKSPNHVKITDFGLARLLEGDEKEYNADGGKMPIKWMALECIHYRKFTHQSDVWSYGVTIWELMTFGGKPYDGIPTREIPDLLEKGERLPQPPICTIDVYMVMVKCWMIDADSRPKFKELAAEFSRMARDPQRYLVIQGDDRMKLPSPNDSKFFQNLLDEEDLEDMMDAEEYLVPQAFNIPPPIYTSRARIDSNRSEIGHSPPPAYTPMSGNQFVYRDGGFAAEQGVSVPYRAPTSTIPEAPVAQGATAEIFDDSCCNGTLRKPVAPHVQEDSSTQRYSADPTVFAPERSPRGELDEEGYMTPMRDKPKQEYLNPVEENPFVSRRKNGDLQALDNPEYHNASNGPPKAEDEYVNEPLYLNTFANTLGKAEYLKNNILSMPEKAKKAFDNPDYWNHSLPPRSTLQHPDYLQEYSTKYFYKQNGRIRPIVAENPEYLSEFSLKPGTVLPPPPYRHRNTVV

Broadly, the IC50 is the concentration needed to halve the response being measured. For orientation: clearance means the volume of plasma or blood freed of the substance per unit of time. A high value points to efficient removal. For orientation: bioavailability means dose-corrected exposure relative to a reference, in per cent. In the case of `CC(C)C(=O)N1CCO[C@@H](c2nc(-c3ccc(C(=O)Nc4cc(C(F)(F)F)ccn4)cc3F)c3c(N)nccn23)C1`, the IC50 is 0.0004 to 0.00044 µM in data set [1]; 0.026 µM in [2]; 15 µM in data set [3]; 0.28 µM in data set [4]; 0.703 µM in data set [5]; 0.514 µM in data set [6]. The IC50 came to 0.268 µM in data set [7]; 0.706 µM in data set [9]; 1.9 µM in data set [11]; 1.05 µM in data set [14]; 0.512 µM in data set [17]; 0.103 µM in [18]. This molecule returned a concentration for half-maximal inhibition (IC50) in data set [20] of 0.464 µM. Moreover, the Ratio IC50 in the data set filed under Homo sapiens [8] was 610; in the data set filed under Homo sapiens [10], 1600; in the data set listed under Homo sapiens [12], 4330; in the data set filed under Homo sapiens [13] it was 227; in the data set filed under Homo sapiens [15], 2380; in the data set filed under Homo sapiens [16], 393. Besides, the Ratio IC50 in the data set listed under Homo sapiens [19] turned out to be 234; in the data set listed under Homo sapiens [21] it was 605. In addition, the clearance in [22] stood at 1.4 mL/min/kg. The molecule further came in with a bioavailability in data set [23] of 89%.
